“Also recorded” adds a separate entry of the source.
Experiments:
CXCL1 = CXCL1 staining in thoracic ventral column white matter of EAE mice; type: in vivo, mouse; parameters: key to CNS Chemokines: CXCL1: ‘+’ indicate marker was significantly (p ≤ 0.05) increased in treatment group relative to vehicle; ‘−’ indicates marker was significantly (p ≤ 0.05) decreased in treatment group relative to vehicle; ○: ‘o’ indicate marker did not change relative to vehicle; settings: vs vehicle; for CXCL1 staining intensity, thoracic ventral column: therapeutic treatment (postEAE)
From the text: (§1) Immunohistochemistry: Before histological staining, 40-μm free floating sections were thoroughly washed with PBS to remove residual sodium azide (Crawford et al., 2010). Sections were permeabilized with 0.3% Triton X-100 in ix PBS and 15% normal goat serum (NGS). Myelination, gliosis and immune markers were visualized by the following primary antibodies at a concentration of 1:500 unless otherwise noted: chicken anti-myelin basic protein (MBP; polyclonal, EMD Millipore, Darmstadt, Germany), chicken anti-glial fibrillary acidic protein (GFAP; EMD Millipore, Darmstadt), rat anti-cluster of differentiation 45 (CD45; clone 30-F11, BD Biosciences, San Diego, Calif.), mouse anti-ionized calcium-binding adapter molecule 1/allograft inflammatory factor-1 (Iba1/AIF1; clone 20A12.1, EMD Millipore, Darmstadt, Germany), goat anti-CXCL1 (R&D systems; Minneapolis, Minn.) at 1:250 and mouse anti-adenomatous polyposis coli (CC-1; clone CC-1, Genetex, Irvine, Calif.). Secondary staining was performed using polyclonal fluorophore-conjugated antibodies from ThermoFisher Scientific at a concentration of 1:500 unless otherwise specified: goat anti-chicken Alexa Fluor® 555 (AF555), goat anti-rabbit Alexa Fluor® 647 (AF647), donkey anti-chicken IgY Cy3 (EMD Millipore), goat anti-rat IgG AF647, goat anti-rabbit IgG Cy3 (EMD Millipore), goat anti-mouse IgG2b AF647 and rabbit anti-goat AF647. Nuclei were counter stained with 4′,6-Diamidino-2-phenylindole (DAPI, 2 ng/ml; Molecular Probes) for 10 minutes after incubation with secondary antibodies, and sections were mounted on glass slides, allowed to dry, and coverslipped with Fluoromount G mounting medium (Thermo Fisher Scientific) for imaging.
(§2) Confocal Microscopy: Thoracic spinal cord dorsal and ventral column sections, as well as CC were imaged using an Olympus BX61 confocal microscope (Olympus America Inc., Center Valley, Pa.) using a 10× and 40× objective. Z-stack projections were compiled using SlideBook 6 software (Intelligent Imaging Innovations, Inc., Denver, Colo.). Immunostaining was quantified using unbiased stereology (Crawford et al., 2010). All images (RGB) were Confocal converted to grayscale, split, and separated by color channel using imageJ version 2.2.0-rc-46/1.50 g (NIH). To avoid experimenter bias, auto-adjustment of brightness and contrast, as well as threshold of staining signal, was carried out by ImageJ. MBP^+, GFAP^+, CD45^+, Iba1^+, CC1^+, and CXCL1^+, staining intensity was measured as percent area of positive immunoreactivity within the region of interest and intensity of signal determined by ImageJ.
Under inflammatory conditions, such as those generated by MS, astrocytes undergo NF-κB-dependent upregulation of CXCL1, which is thought to recruit OPCs to the site of demyelinating injury (Omari et al., 2006; Xue et al., 2014). Thus, having observed that IndCl raised its production by peripheral leukocytes, CXCL1 expression in thoracic ventral column white matter was next evaluated.

[1] = test system: corpus callosum mature OLs (CC1) and MBP; assay: CC1 mature OLs and MBP immunoreactivity in callosal white matter tracts of EAE mice; type: in vivo, mouse; parameters: key to Myelination: OLs / Myelination: MBP: ‘+’ indicate marker was significantly (p ≤ 0.05) increased in treatment group relative to vehicle; ‘−’ indicates marker was significantly (p ≤ 0.05) decreased in treatment group relative to vehicle; ○: ‘o’ indicate marker did not change relative to vehicle; settings: vs vehicle; for CC1+ mature OL numbers, corpus callosum / MBP+ staining, corpus callosum: therapeutic treatment (postEAE)
From the text: as §1, §2
To test whether IndCl analogues promote similar gains in mature OL numbers and myelination, callosal white matter tracts were assessed for adenomatous polyposis coli (CC1) and MBP immunoreactivity, respectively. Additionally, ultrastructural analysis of the CC was performed by EM imaging to confirm the integrity of axon myelination.

ERα = target: T1, ERα (Homo sapiens, UniProt P03372); assay: Relative binding affinity (RBA) to estrogen receptor alpha, radiometric measurement; settings: relative value to 100% for E2 by radiometric measurement
T1 sequence (P03372 1-595): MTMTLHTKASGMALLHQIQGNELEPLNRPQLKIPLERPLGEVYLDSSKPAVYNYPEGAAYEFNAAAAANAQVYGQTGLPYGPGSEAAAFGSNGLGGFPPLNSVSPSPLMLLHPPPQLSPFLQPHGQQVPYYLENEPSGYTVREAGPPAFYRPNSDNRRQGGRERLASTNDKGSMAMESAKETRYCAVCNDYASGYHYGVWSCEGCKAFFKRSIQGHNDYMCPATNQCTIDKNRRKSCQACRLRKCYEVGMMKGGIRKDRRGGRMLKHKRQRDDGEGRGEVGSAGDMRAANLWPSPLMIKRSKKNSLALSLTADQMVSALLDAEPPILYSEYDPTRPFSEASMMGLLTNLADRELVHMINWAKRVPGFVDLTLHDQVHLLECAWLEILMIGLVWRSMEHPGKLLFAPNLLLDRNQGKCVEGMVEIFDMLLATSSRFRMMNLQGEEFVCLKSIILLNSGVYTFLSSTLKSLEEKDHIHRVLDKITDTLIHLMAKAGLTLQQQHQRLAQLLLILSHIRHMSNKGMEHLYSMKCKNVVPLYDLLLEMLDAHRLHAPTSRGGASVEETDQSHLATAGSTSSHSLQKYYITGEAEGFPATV

corpus callosum axons = assay: Electron microscopy g-ratio of corpus callosum axons of EAE mice; type: in vivo, mouse; parameters: key to Myelination: g-ratio: ‘+’ indicate marker was significantly (p ≤ 0.05) increased in treatment group relative to vehicle; ‘−’ indicates marker was significantly (p ≤ 0.05) decreased in treatment group relative to vehicle; ○: ‘o’ indicate marker did not change relative to vehicle; settings: vs vehicle; for Myelination: g-ratio: Post (therapeutic, postEAE) treatment of EAE mice
Procedure: Transmission Electron Microscopy: Mice were perfused with PBS as above followed by paraformaldehyde/glutaraldehyde to preserve ultrastructure and Epon embedded as previously described (Crawford et al., 2010). Serial ultrathin sections of Epon-embedded CC were stained with uranyl acetate-lead citrate were used for electron microscopy analysis (19). G-ratio was measured using Fiji v1.0 Software (NIH).
EM analysis (FIGS. 8A and 8B): Within a given field imaged, g-ratios were calculated by comparing mean ratio of inner axonal diameter to total outer diameter for all myelinated and non-myelinated fibers. […] Treatment with IndCl or either analogue decreased both non-myelinated axons numbers and g-ratio relative to vehicle.

ERβ = ERβ (Homo sapiens, UniProt Q92731); assay: Relative binding affinity (RBA) to estrogen receptor beta, radiometric measurement; settings: for β/α Ratio: ratio of RBA ERβ to RBA ERα; for RBA ERβ: relative value to 100% for E2 by radiometric measurement
[2] = Post (therapeutic, postEAE) treatment of EAE mice
[3] = Pre (prophylactic, preEAE) E2 treatment of EAE mice

Sequence of ERβ (Q92731 whole entry, species assumed): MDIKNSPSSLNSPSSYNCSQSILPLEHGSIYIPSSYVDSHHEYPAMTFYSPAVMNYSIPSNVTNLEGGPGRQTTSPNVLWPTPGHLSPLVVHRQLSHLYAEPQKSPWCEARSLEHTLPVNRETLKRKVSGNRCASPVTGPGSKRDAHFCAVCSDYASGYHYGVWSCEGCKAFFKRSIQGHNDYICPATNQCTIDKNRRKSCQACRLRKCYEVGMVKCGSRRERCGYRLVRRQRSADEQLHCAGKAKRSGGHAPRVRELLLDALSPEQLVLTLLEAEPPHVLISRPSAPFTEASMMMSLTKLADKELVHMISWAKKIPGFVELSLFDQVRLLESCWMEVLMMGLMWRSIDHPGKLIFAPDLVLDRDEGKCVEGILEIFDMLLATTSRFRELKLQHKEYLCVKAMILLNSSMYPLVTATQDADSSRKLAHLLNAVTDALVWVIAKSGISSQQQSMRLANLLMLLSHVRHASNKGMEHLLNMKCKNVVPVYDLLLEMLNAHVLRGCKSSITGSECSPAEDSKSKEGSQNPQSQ

Row | Compound | CNS Chemokines: CXCL1 (CXCL1; [2]) | CNS Chemokines: CXCL1 (CXCL1; [3]) | Myelination: MBP [1, 2] | Myelination: OLs [1, 2] | Myelination: MBP [1, 3] | Myelination: OLs [1, 3] | CXCL1 staining intensity, thoracic ventral column (CXCL1) | RBA ERα (ERα) [%] | Myelination: g-ratio (corpus callosum axons) | g-ratio of callosal axons (corpus callosum axons; therapeutic treatment (postEAE)) | β/α Ratio (ERβ) | RBA ERβ (ERβ) [%] | CC1+ mature OL numbers, corpus callosum [1] | MBP+ staining, corpus callosum [1]
1 | C[C@]12CC[C@@H]3c4ccc(O)cc4CC[C@H]3[C@@H]1CC[C@@H]2O [E2, 170 estradiol] | + | ○ | ○ | + | + | + |  |  |  |  |  |  |  | 
2 | Oc1ccc(-n2nc3ccc(O)cc3c2Cl)cc1 [IndCl, chloroindazole] | + |  | + | + |  |  | significant increase; also recorded: significantly increased | 0.03 | − | decreased | 107 | 32.1 | significant increase; also recorded: rescued the loss of CC1+ cells | increased MBP+ staining
3 | Oc1ccc(-n2nc3ccc(O)cc3c2Cl)c(Cl)c1 [IndCl-o-Cl, 3-chloro-2-(2-chloro-4-hydroxyphenyl)-2H-indazol-5-ol] | + |  | + | + |  |  | significant increase; also recorded: significantly increased | 0.40 | − |  | 27.1 | 10.9 | significant increase | increased MBP+ staining
4 | Cc1cc(O)ccc1-n1nc2ccc(O)cc2c1Cl [IndCl-o-Me, 3-chloro-2-(4-hydroxy-2-methylphenyl)-2H-indazol-5-ol] | + |  | + | + |  |  | significant increase; also recorded: significantly increased | 0.43 | − |  | 48.9 | 21.1 | significant increase | increased MBP+ staining

— patent US11673866B2, “Estrogen receptor beta ligands for the prevention and treatment of multiple sclerosis (MS) and other demyelinating, inflammatory and neurodegenerative diseases” (The Board of Trustees of the University of Illinois, priority 2018, dated 2023)
